The results in this text go back to patent US9469627B2, “Phenyloxadiazole derivatives as PGDS inhibitors” (Sanofi, priority 2009, dated 2016).

The structures appear in SMILES notation.

The nature of series [1]: Solid solubility (solidsol). The class given is physicochemical.
In series [2] the target is human h-PGDS (Homo sapiens (Human), UniProt O60760). Kind of series: Enzyme Immunoassay (EIA) method for inhibition of hematopoietic PGD2 synthase. It counts as biochemical. The note with it: PGD2 formed from PGH2, measured by EIA; read-out: hPGDS EIA IC50. The text has this:
The compounds of the present invention can be tested for enzymatic inhibiting activity against PGD2 Synthase according to either one of the following assays.
Assay 2: Enzyme Immunoassay (EIA) Method
• a. Preparation of 0.1M K2HPO4/KH2PO4 buffer (pH 7.4) • Prepare 0.1 M KH2PO4 from 1M KH2PO4 (Sigma, Cat# P-8709) • Prepare 0.1 M K2HPO4 from powder of K2HPO4 (Fisher, BP363-500) • Mix 0.1 M K2HPO4 with 0.1 M KH2PO4 to adjust pH to 7.4. • b. Preparation of 0.5% γ-globulin • Add 0.1 g of γ-globulin (Sigma, Cat# G-5009) to 20 mL 0.1 M K2HPO4/KH2PO4 buffer (pH 7.4) and make 1-mL/vial aliquots and store in −80° C. • c. Preparation of 100 mM GSH • Add 307 mg of GSH (Sigma, Cat# G-6529) to 10 mL 0.1 M K2HPO4/KH2PO4 buffer (pH 7.4) and store at −80° C. • d. Preparation of Reaction buffer: • 198 mL of 0.1M K2HPO4/KH2PO4 buffer (pH 7.4) • 2 mM GSH—Prepared from 100 mM GSH • 0.4 g Glycerol • 2 mL of 0.5% γ-globulin • Add 0.4 g of glycerol and 2 mL of 0.5% γ-globulin to 198 mL of 0.1 M K2HPO4/KH2PO4 • buffer (pH7.4). • Add 0.4 mL of 100 mM GSH to 19.6 mL reaction buffer before the assay (enough for two 96-well plates). • e. Preparation of FeCl2/citric acid stopping solution: (8 mg/mL FeCl2, 0.1 M citric acid) • Add 40 mg fresh FeCl2 (IGN, Cat#158046) to 5 mL 0.1 M citric acid (Sigma, Cat# C0759). • f. Preparation of MOX reagent: • 10% EtOH—Add 1 mL of EtOH to 9 mL of ultra pure H2O • Dissolve 0.1 g of methoxylamine (Cayman, Cat#400036/) in 10% EtOH (10 mL). • Add 0.82 g of sodium acetate (Cayman, Cat#400037) to MOX solution and dissolve. II. Materials and Method • Dimethylsulfoxide (DMSO; Sigma; Cat# D2650) • Prostaglandin D2-MOX express EIA kit (Caymen Chemical, Catalog No. 500151)
Before the assay, cool down 10 mL of acetone in polypropylene tubes and empty 96 well plates in ice. All the procedures except compound dilution are performed on ice.
• 1. Dilute compound in DMSO
• 2. […] Total PGD2 levels (pg/mL) were determined in the samples by EIA kits (Cayman Chemical, Catalog No. 500151) • Calculate amount of PGD2 as below • Calculated % Positive control according to the equation below; […]

human h-PGDS, sequence (O60760 whole entry): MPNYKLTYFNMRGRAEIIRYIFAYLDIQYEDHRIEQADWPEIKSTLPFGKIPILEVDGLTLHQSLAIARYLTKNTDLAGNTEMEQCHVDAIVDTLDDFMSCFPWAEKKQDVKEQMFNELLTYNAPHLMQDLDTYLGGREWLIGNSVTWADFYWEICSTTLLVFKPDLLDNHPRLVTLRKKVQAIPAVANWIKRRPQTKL

The compound `CC(C)(O)c1nc(-c2cccc(CNC(=O)c3cnc(-c4ccccn4)nc3)c2)no1` [Example 1, 2-Pyridin-2-yl-pyrimidine-5-carboxylic acid 3-[5-(1-hydroxy-1-methyl-ethyl)-1,2,4-oxadiazol-3-yl]-benzylamide] gave a solidsol in series [1] of 135.9 µM. Also, the IC50 in series [2] was 0.012 µM.
Taken in the same sequence, the figures for `C[C@H](NC(=O)c1cnc(-c2ccccn2)nc1)c1cccc(-c2noc(C(C)(C)O)n2)c1` [Example 2, 2-Pyridin-2-yl-pyrimidine-5-carboxylic acid ((S)-1-{3-[5-(1-hydroxy-1-methyl-ethyl)-1,2,4-oxadiazol-3-yl]-phenyl}-ethyl)-amide] were 854.9 µM and 0.011 µM.
In series [1], `C[C@@H](NC(=O)c1cnc(-c2ccccn2)nc1)c1cccc(-c2noc(C(C)(C)O)n2)c1` [Example 3, 2-Pyridin-2-yl-pyrimidine-5-carboxylic acid ((R)-1-{3-[5-(1-hydroxy-1-methyl-ethyl)-1,2,4-oxadiazol-3-yl]-phenyl}-ethyl)-amide] showed a solidsol of 29.4 µM. Further, in series [2], the IC50 is 0.026 µM.

As usually defined, the IC50 is the point on the concentration scale where inhibition reaches its midpoint.
